The test system of assay [1] is breast cancer patients. Description: Pathologic complete response in the chemoimmunotherapy (pembrolizumab) arm of the I-SPY2 trial, by TP53 loss phenocopy status. The format is in vivo, human. Particulars: pembrolizumab with anthracycline/taxane-based neoadjuvant chemotherapy backbone. The source says:
In addition, we sought to identify published cohorts with pre-chemotherapy RNA profiling with pathologic response data. The majority of data we could find was in the setting of breast cancer neoadjuvant chemotherapy, where response could be assessed at the time of surgery. Our dataset evaluating clinical treatment response and the phenocopy signatures in breast cancer included 18 breast cancer cohorts with gene expression data downloaded from the Gene Expression Omnibus (GEO) with the following accession numbers: GSE22093, GSE25055, GSE41998, GSE20194, GSE4779, GSE8465, GSE66399, GSE16446, GSE20271, GSE18864, GSE25065, GSE32646, GSE164458, GSE22226, GSE192341, GSE163882, GSE34138, GSE32603, and one additional publicly available TNBC gene expression cohort^48. Finally, we utilized gene expression and clinical response data from the I-SPY2 trial as an independent clinical validation cohort for our phenocopy signatures and breast cancer neoadjuvant therapy response, also downloaded from GEO (GSE194040).
Each of the breast cancer datasets had annotations for pathologic response (pCR versus no pCR) for each sample. The TP53 phenocopy signature was then applied without modification to pre-treatment samples from each breast cancer study, with normalization/batch correction as above. […]

Assay [2] relates to breast cancer patients. Description: Response to neoadjuvant everolimus in a breast cancer cohort (GSE119262), by mTOR phenocopy status. The note with it: neoadjuvant everolimus followed by surgery. The format is in vivo, human.

Consider pembrolizumab, for which the pCR rate worked out at 64% in the assay with breast cancer patients [1] (TP53 loss phenocopy samples) and 28% with breast cancer patients [1] (non-phenocopy samples).
On to `CO[C@H]1C[C@@H]2CC[C@@H](C)[C@@](O)(O2)C(=O)C(=O)N2CCCC[C@H]2C(=O)O[C@H]([C@H](C)C[C@@H]2CC[C@@H](OCCO)[C@H](OC)C2)CC(=O)[C@H](C)/C=C(\C)[C@@H](O)[C@@H](OC)C(=O)[C@H](C)C[C@H](C)/C=C/C=C/C=C/1C` [everolimus], for which the results for the “tumors that responded to anti-mTOR therapy” value in the assay on breast cancer patients [2] (pre-treatment non-mTOR phenocopy tumors) and with breast cancer patients [2] (pre-treatment samples predicted as mTOR mutation phenocopies) were 75.8% and 100%, respectively.
